pKi: −log10 of the molar value.
Tests used:
[1] = target: isolated recombinant JAK1 kinase domain (Homo sapiens (Human), UniProt P23458); experiment: JAK1 enzyme assay (Caliper LabChip, peptide phosphorylation); format: biochemical; settings: isolated recombinant JAK1 kinase domain, 25 μM ATP
[2] = test system: JAK1-dependent STAT6 phosphorylation downstream of IL-13 stimulation in BEAS-2B human bronchial epithelial cells; experiment: JAK1 pathway assay in BEAS-2B cells (IL-13-pSTAT6, MSD); format: cell-based; settings: read-out: IL13-pSTAT6 EC50 (uM)_BEAS-2B
Protocol: JAK1 Pathway Assay in Cell Lines was Carried Out as Follows:
Inhibitor potency (EC50) was determined in cell-based assays designed to measure JAK1 dependent STAT phosphorylation.
In one assay approach, TF-1 human erythroleukemia cells obtained from the American Type Culture Collection (ATCC; Manassas, Va.) were used to measure JAK1-dependent STAT6 phosphorylation downstream of IL-13 stimulation. Prior to use in the assays, TF-1 cells were starved of GM-CSF overnight in OptiMEM medium (Life Technologies, Grand Island, N.Y.) supplemented with 0.5% charcoal/dextran stripped fetal bovine serum (FBS), 0.1 mM non-essential amino acids (NEAA), and 1 mM sodium pyruvate. The assays were run in 384-well plates in serum-free OptiMEM medium using 300,000 cells per well. In a second assay approach, BEAS-2B human bronchial epithelial cells obtained from ATCC were plated at 100,000 cells per well of a 96-well plate one day prior to the experiment. The BEAS-2B assay was run in complete growth medium (bronchial epithelial basal medium plus bulletkit; Lonza; Basel, Switzerland).
Test compounds were serially diluted 1:2 in DMSO and then diluted 1:50 in medium just before use. Diluted compounds were added to the cells, for a final DMSO concentration of 0.2%, and incubated for 30 min (for the TF-1 assay) or 1 hr (for the BEAS-2B assay) at 37° C. Then, cells were stimulated with human recombinant cytokine at their respective EC90 concentrations, as previously determined for each individual lot. Cells were stimulated with IL-13 (R&D Systems, Minneapolis, Minn.) for 15 min at 37° C. The TF-1 cell reactions were stopped by the direct addition of 10× lysis buffer (Cell Signaling Technologies, Danvers, Mass.), whereas the BEAS-2B cell incubations were halted by the removal of medium and addition of 1× lysis buffer. The resultant samples were frozen in the plates at −80° C. Compound mediated inhibition of STAT6 phosphorylation was measured in the cell lysates using MesoScale Discovery (MSD) technology (Gaithersburg, Md.).

isolated recombinant JAK1 kinase domain, sequence (P23458 875-1153): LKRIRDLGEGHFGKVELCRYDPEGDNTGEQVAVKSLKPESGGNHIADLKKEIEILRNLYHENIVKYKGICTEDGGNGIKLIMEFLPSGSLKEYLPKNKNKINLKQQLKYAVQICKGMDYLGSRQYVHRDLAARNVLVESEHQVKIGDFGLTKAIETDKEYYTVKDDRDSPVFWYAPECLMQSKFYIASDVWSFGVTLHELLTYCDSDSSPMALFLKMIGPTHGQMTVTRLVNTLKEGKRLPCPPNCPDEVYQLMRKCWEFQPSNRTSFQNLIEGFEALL

| Compound | pKi [1] | EC50 [2] [µM] |
| --- | --- | --- |
| COC(=O)CCN1CCN(C(=O)Cn2cc(NC(=O)c3cnn4cccnc34)c(-c3cc(Cl)ccc3OC(F)F)n2)CC1 [Example 331, methyl 3-[4-(2-[3-[5-chloro-2-(difluoromethoxy)phenyl]-4-[pyrazolo[1,5-a]pyrimidine-3-amido]-1H-pyrazol-1-yl]acetyl)piperazin-1-yl]propanoate] | 9.41 | 0.0176 |
| O=C(O)CCN1CCN(C(=O)Cn2cc(NC(=O)c3cnn4cccnc34)c(-c3cc(Cl)ccc3OC(F)F)n2)CC1 [Example 353, 3-[4-(2-[3-[5-chloro-2-(difluoromethoxy)phenyl]-4-[pyrazolo[1,5-a]pyrimidine-3-amido]-1H-pyrazol-1-yl]acetyl)piperazin-1-yl]propanoic acid] | 9.49 | 3.61 |
| CN1CCN(C/C=C/Cn2cc(NC(=O)c3cnn4cccnc34)c(-c3cc(Cl)ccc3OC(F)F)n2)CC1 [Example 395, N-[3-[5-chloro-2-(difluoromethoxy)phenyl]-1-[(2E)-4-(4-methylpiperazin-1-yl)but-2-en-1-yl]-1H-pyrazol-4-yl]pyrazolo[1,5-a]pyrimidine-3-carboxamide] | 8.89 | 0.0224 |
| CSCCOC(=O)CNCCn1cc(NC(=O)c2cnn3cccnc23)c(-c2cc(Cl)ccc2OC(F)F)n1 [Example 396, 2-(methylthio)ethyl 2-(2-(3-(5-chloro-2-(difluoromethoxy)phenyl)-4-(pyrazolo[1,5-a]pyrimidine-3-carboxamido)-1H-pyrazol-1-yl)ethylamino)acetate] | 8.48 | 0.0382 |
| CNC(=O)[C@@H]1CCCN1CC1CCN(C(=O)Cn2cc(NC(=O)c3cnn4cccnc34)c(-c3cc(Cl)ccc3OC(F)F)n2)CC1 [Example 425, N-(3-(5-chloro-2-(difluoromethoxy)phenyl)-1-(2-(4-(((S)-2-(methyl-carbamoyl)pyrrolidin-1-yl)methyl)piperidin-1-yl)-2-oxoethyl)-1H-pyrazol-4-yl)pyrazolo[1,5-a]pyrimidine-3-carboxamide] | – | 0.0411 |
| O=C(Nc1cn(CC(=O)N2CCC(N3CC[S+]([O-])CC3)CC2)nc1-c1cc(Cl)ccc1OC(F)F)c1cnn2cccnc12 [Example 443] | – | 0.0663 |
| CN(CC1(C#N)CC1)C1CCN(C(=O)Cn2cc(NC(=O)c3cnn4cccnc34)c(-c3cc(Cl)ccc3OC(F)F)n2)CC1 [Example 467, N-(3-(5-chloro-2-(difluoromethoxy)phenyl)-1-(2-(4-(((1-cyanocyclopropyl)methyl) (methyl)amino)piperidin-1-yl)-2-oxoethyl)-1H-pyrazol-4-yl)pyrazolo[1,5-a]pyrimidine-3-carboxamide] | – | 0.0075 |

Second part, led by results:

| pKi [1] | Compound | EC50 [2] [µM] |
| --- | --- | --- |
| 9.12 | CN(C)C(=O)CNC1CCN(C(=O)Cn2cc(NC(=O)c3cnn4cccnc34)c(-c3cc(Cl)ccc3OC(F)F)n2)CC1 [Example 401, N-(3-(5-chloro-2-(difluoromethoxy)phenyl)-1-(2-(4-(2-(dimethylamino)-2-oxoethylamino)piperidin-1-yl)-2-oxoethyl)-1H-pyrazol-4-yl)pyrazolo[1,5-a]pyrimidine-3-carboxamide] | 0.152 |
| 8.84 | O=C(Nc1cn(CC(O)CN2CCOCC2)nc1-c1cc(Cl)ccc1OC(F)F)c1cnn2cccnc12 (centres unmarked) [Example 403, N-(3-(5-chloro-2-(difluoromethoxy)phenyl)-1-(2-hydroxy-3-morpholinopropyl)-1H-pyrazol-4-yl)pyrazolo[1,5-a]pyrimidine-3-carboxamide] | 0.0283 |
| 8.77 | O=C(CN1CCOCC1)Cn1cc(NC(=O)c2cnn3cccnc23)c(-c2cc(Cl)ccc2OC(F)F)n1 [Example 412, N-(3-(5-chloro-2-(difluoromethoxy)phenyl)-1-(3-morpholino-2-oxopropyl)-1H-pyrazol-4-yl)pyrazolo[1,5-a]pyrimidine-3-carboxamide] | 0.0395 |

Reference: patent US9346815B2, “5-chloro-2-difluoromethoxyphenyl pyrazolopyrimidine compounds, compositions and methods of use thereof” (Genentech, Inc., priority 2014, dated 2016)
